Values quoted from earlier work as cited in patent publication US6773669B1, “Flow electroporation chamber and method” (Maxcyte, Inc., priority 1995, dated 2004).

What was measured:
hemoglobin [1] = target: T1, hemoglobin (Homo sapiens, UniProt P68871); settings: pH 7.4, 37 degrees C; J. Biol. Chem. 1975
hemoglobin [2] = target: T1, hemoglobin; settings: higher than DPG; Benesch et al. 1977
[3] = experimental animals; DPG or precursors of DPG; transient

T1 sequence (P68871 2-147 limits assumed): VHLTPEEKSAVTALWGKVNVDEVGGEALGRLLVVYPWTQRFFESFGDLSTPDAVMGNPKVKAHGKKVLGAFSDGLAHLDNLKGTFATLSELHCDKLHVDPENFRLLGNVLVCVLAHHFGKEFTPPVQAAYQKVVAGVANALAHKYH
T1 sequence (P69905 2-142 partner limits assumed): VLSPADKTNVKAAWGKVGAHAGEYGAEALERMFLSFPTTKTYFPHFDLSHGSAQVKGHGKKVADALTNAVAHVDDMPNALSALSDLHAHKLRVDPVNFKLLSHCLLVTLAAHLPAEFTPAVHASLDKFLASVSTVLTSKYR

Row | P50 of hemoglobin (hemoglobin [1]) | affinity to hemoglobin relative to DPG (hemoglobin [2]) | SMILES | duration of elevation of oxygen deposition [3]
1 | ≤ 96.4 mm Hg | 1000 fold | O=P(O)(O)O[C@H]1[C@H](OP(=O)(O)O)[C@@H](OP(=O)(O)O)[C@H](OP(=O)(O)O)[C@@H](OP(=O)(O)O)[C@H]1OP(=O)(O)O [IHP, inositol hexaphosphate] | –
2 | – | – | O=C(O)C(COP(=O)(O)O)OP(=O)(O)O (stereo not drawn) [DPG, 2,3-diphosphoglycerate] | 6 to 12 h
